Reference: publication PMC7158045 (BMC Plant Biology, 2020)
Where a name gives a salt, the structure may show the parent alone.

Columns and labels:
Assay in all cases: biochemical
ZmDRIK1-K217-S514 = target: T1, ZmDRIK1-K217-S514 (Zea mays, UniProt C0P4K9); conditions: read-out: dTm B, sheet ZmDRIK1-K217-S514;; DSF, Boltzmann fit, 0.1% DMSO
T1 construct: kinase domain, K217-S514
T1 sequence (C0P4K9 1-514): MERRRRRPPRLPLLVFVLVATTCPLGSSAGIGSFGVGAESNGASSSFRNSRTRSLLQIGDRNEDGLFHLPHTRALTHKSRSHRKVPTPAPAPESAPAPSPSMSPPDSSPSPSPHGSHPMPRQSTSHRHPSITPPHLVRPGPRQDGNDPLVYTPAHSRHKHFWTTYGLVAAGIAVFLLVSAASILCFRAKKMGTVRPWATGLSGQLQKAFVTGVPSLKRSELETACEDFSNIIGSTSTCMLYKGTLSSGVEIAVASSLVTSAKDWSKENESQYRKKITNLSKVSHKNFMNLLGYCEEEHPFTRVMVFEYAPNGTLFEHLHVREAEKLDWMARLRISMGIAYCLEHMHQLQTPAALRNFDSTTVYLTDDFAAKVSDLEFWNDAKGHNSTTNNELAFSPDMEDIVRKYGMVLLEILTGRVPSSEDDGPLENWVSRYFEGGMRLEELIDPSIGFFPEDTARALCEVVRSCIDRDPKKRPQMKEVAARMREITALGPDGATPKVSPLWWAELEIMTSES

ZmDRIK1-K217-P492 = target: T2, ZmDRIK1-K217-P492 (Zea mays, UniProt C0P4K9); conditions: read-out: dTm B, sheet ZmDRIK1-K217-P492;; DSF, Boltzmann fit, 0.1% DMSO
T2 construct: kinase domain, K217-P492
T2 sequence (C0P4K9 1-514): T1 sequence (C0P4K9 1-514)

ZmDRIK1-R187-P492 = target: T3, ZmDRIK1-R187-P492 (Zea mays, UniProt C0P4K9); conditions: read-out: dTm B, DSF, Boltzmann fit, 0.1% DMSO
T3 construct: kinase domain, R187-P492
T3 sequence (C0P4K9 1-514): T1 sequence (C0P4K9 1-514)

[1] = target: T4, ZmDRIK1 (DROUGHT RESPONSIVE INACTIVE KINASE 1), kinase domain (Zea mays, UniProt C0P4K9); conditions: read-out: dTm B, sheet ZmDRIK1-R187-S514;; DSF, Boltzmann fit, 0.1% DMSO
T4 construct: gene ZEAMMB73_Zm00001d028770; ZmDRIK1-KD R187-S514 (kinase domain)
T4 sequence (C0P4K9 187-514): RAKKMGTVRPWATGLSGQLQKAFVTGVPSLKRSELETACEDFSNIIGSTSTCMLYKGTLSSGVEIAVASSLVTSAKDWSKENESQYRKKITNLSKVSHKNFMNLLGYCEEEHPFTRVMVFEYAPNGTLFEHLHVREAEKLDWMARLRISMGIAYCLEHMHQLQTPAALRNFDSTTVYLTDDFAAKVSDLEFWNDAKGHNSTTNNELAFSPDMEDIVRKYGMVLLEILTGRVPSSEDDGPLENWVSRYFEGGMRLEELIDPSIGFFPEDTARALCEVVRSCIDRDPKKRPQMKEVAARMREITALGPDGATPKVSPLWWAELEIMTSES

SMILES	ΔTm at 10 µM (ZmDRIK1-K217-S514) [°C]	ΔTm at 10 µM (ZmDRIK1-K217-P492) [°C]	ΔTm at 10 µM (ZmDRIK1-R187-P492) [°C]	ΔTm at 10 µM [1] [°C]
O=C1NC(=O)/C(=C/c2cccc(C(F)(F)F)c2)S1 [SMI-4a]	-0.218	-1.12	0.139	-0.708
Cc1[nH]nc2ccc(-c3cncc(OC[C@@H](N)Cc4ccccc4)c3)cc12 [A-674563]	-0.328	-0.898	-0.417	-0.493
Fc1cc(-c2cccc3ncc(-c4cnn(C5CCNCC5)c4)nc23)cc(F)c1CN1CCOCC1 [NVP-BSK805 2HCl]	-0.602	-0.999	-0.0846	-0.913
Cc1c(CN2CCN(C(=O)[C@H](C)O)CC2)sc2c(N3CCOCC3)nc(-c3cnc(N)nc3)nc12 [GDC-0980 (RG7422)]	-0.304	-1.16	-0.177	-0.737
CCC[C@H](NC(=O)/C(C#N)=C/c1cccc(Br)n1)c1ccccc1 [Degrasyn (WP1130)]	-3.28	-5.21	-3.03	-5.72
COc1ccc(F)c(F)c1C(=O)c1cnc(NC2CCN(S(C)(=O)=O)CC2)nc1N [R547]	-0.339	-1.09	-0.297	-0.939
Cc1cc(CN2CCN(c3c(Br)cnc4nc(-c5ccc(N6CCN(C)CC6)cc5)[nH]c34)CC2)no1 [CCT137690]	-0.286	-0.814	-0.157	-1.09
O=C(Cc1ccc(-c2ccc(OCCN3CCOCC3)cc2)cn1)NCc1ccccc1 [KX2-391]	-0.346	-0.496	-0.338	-0.49
COc1ccccc1-c1cc(Nc2cccc(CS(N)(=O)=O)c2)ncn1 [LDC000067]	0.865	0.0733	0.533	-0.172
Nc1ncnc2c1c(-c1cnc3[nH]ccc3c1)nn2C1CCCC1 [PP121]	-0.432	-1.06	-0.369	-0.595
Cc1[nH]c(/C=C2\C(=O)Nc3ccc(S(=O)(=O)Cc4c(Cl)cccc4Cl)cc32)c(C)c1C(=O)N1CCC[C@@H]1CN1CCCC1 [PHA-665752]	-0.843	-1.25	-0.648	-0.988
O=C(NC1CCNCC1)c1n[nH]cc1NC(=O)c1c(Cl)cccc1Cl [AT7519]	-0.106	0.0166	0.0148	-0.866
N#Cc1c(Oc2ccc(F)c(NC(=O)Cc3cccc(C(F)(F)F)c3)c2)ccc2nc(NC(=O)C3CC3)sc12 [TAK-632]	-2.01	3.91	-0.521	1.64
CNC(=O)c1cc(Oc2ccc(NC(=O)Nc3ccc(Cl)c(C(F)(F)F)c3)c(F)c2)ccn1 [Regorafenib (BAY 73-4506)]	-0.13	-8.99	-5.88	-15.3
CC(C)(C)NS(=O)(=O)c1cncc(-c2cc(F)c3nc(N)nn3c2)c1 [CZC24832]	-0.339	-1.04	-0.444	-0.757
CCCCCCCCc1ccc(CCC(N)(CO)CO)cc1 [Fingolimod (FTY720) HCl]	-0.608	-1.47	-0.447	-0.542
CCc1cccc(CC)c1NC(=O)N1Cc2[nH]nc(NC(=O)c3ccc(N4CCN(C)CC4)cc3)c2C1 [PHA-680632]	-0.247	-0.924	-0.18	-0.776
CNc1nc(Nc2cnn([C@H]3CCN(C4COC4)C[C@@H]3F)c2Cl)ncc1C(F)(F)F [GNE-9605]	-0.718	-0.685	-0.334	-0.953
CNc1nc(-c2ccc3c(N)n[nH]c3c2)cc(N2C[C@@H](C(=O)NC3CCCCC3)CC[C@H]2C)n1 [GSK2334470]	-0.431	-0.636	-0.4	-0.8
COc1cc(OC)c(/C=C/S(=O)(=O)Cc2ccc(OC)c(NCC(=O)O)c2)c(OC)c1 [Rigosertib (ON-01910)]	-0.421	-0.805	-0.217	-0.824
CCN(CC)CCCC(C)Nc1nc(C)cc(Nc2ccc3nc(C)cc(N)c3c2)n1 (stereo not drawn) [NSC 23766]	-0.555	-0.485	-0.128	-0.461
Cc1cc(Nc2ncc(Cl)c(Nc3ccccc3S(=O)(=O)C(C)C)n2)c(OC(C)C)cc1C1CCNCC1 [LDK378]	-0.431	-1.23	-0.522	-0.744
CN1CCC(CNc2ccc3ncc(-c4cccc(OC(F)(F)F)c4)n3n2)CC1 [SGI-1776 free base]	-0.336	-0.576	-0.27	-1.1
CNC(=O)c1nn(C)c2c1C(C)(C)Cc1cnc(Nc3ccc(N4CCN(C)CC4)cc3)nc1-2 [Milciclib (PHA-848125)]	-0.233	-0.0433	-0.101	-0.178
CC(C)(C)c1cc(/C=C(\C#N)C(N)=S)cc(C(C)(C)C)c1O [Tyrphostin AG 879]	0.259	-0.358	-0.277	-0.339
FC(F)c1nc2ccccc2n1-c1nc(N2CCOCC2)nc(N2CCOCC2)n1 [ZSTK474]	-0.199	-0.762	-0.113	-1.02
CN1CC[C@H](c2c(O)cc(O)c3c(=O)cc(-c4ccccc4Cl)oc23)[C@H](O)C1 [Flavopiridol HCl]	-0.391	-1.16	-0.272	-0.837
CCNc1nc(Nc2cc(F)c(C(=O)N3CCOCC3)cc2OC)ncc1C(F)(F)F [GNE-7915]	-0.456	-0.898	-0.506	-0.927
N#Cc1c(O)c2c(-c3ccc(-c4ccccc4O)cc3)csc2[nH]c1=O [A-769662]	-0.453	-1.24	-0.292	-1.11
Oc1c2ccccc2c2c3c(cccc13)N=N2 [SP600125]	-0.115	-1.06	-0.115	-0.63
